# Laboratory results published in patent US7358239B2, “Pyrrolidinyl, piperidinyl or homopiperidinyl substituted (benzodioxan, benzofuran or benzopyran) derivatives” (Janssen Pharmaceutica, N.V., priority 1999, dated 2008).
# Test system: fundus of the stomach (gastric tone)
# Experiment: Gastric tone measured by an electronic barostat in conscious dogs
# Assay type: in vivo
# Conditions: mean maximal change in gastric volume on relaxation of the fundus; S.C. administration, 0.63 mg/kg; 1 hour observation period; constant pressure 6 mmHg; conscious female beagle dogs
# Procedure: C.1. Gastric Tone Measured by an Electronic Barostat in Conscious Dogs Gastric tone cannot be measured by manometric methods. Therefore an electronic barostat was used. This allows the study of the physiological pattern and regulation of gastric tone in conscious dogs and the influence of test-compounds on this tone. The barostat consists of an air injection system which is connected by a double-lumen 14-French polyvinyl tube to an ultrathin flaccid polyethylene bag (maximal volume: ±700 ml). Variations in gastric tone were measured by recording changes in the volume of air within an intragastric bag, maintained at a constant pressure. The barostat maintains a constant pressure (preselected) within a flaccid air-filled bag introduced into the stomach, changing the volume of air within, the bag by an electronic feedback system. Thus, the barostat measures gastric motor activity (contraction or relaxation) as changes in intragastric volume (decrease or increase resp.) at a constant intragastric pressure. The barostat consists of a strain gauge linked by an electronic relay to an air injection-aspiration system. Both the strain gauge and the injection system are connected by means of double-lumen polyvinyl tube to an ultrathin polyethylene bag. […] Test compounds were screened, i.e. changes in gastric volume were measured, usually at 0.63 mg/kg. […]
substance,measurement,value
"[1(R),[B-(3α,4α)]]-1-[1-[(3,4-dihydro-2H-1-benzopyran-2-yl)methyl]-3-methoxy-4-piperidinyl]-2(1H)pyrimidinone [Co. No. 2]",Maximum change in volume,9 mL
